“Also recorded” adds a separate entry of the source.
How the values were obtained:
Assay type in all cases: binding
TIP60 = TIP60 (Homo sapiens, UniProt Q92993); experiment: REMSA/EMSA with TIP60 protein; design: 5 μg of full length purified H2A.Z (Abcam) and TIP60 (SignalChem) proteins were incubated; purchased SignalChem; conditions: in vitro, 32P-labeled oligonucleotide, purified TIP60; RNA and DNA probes at same molar concentration
Description: (§1) RNA oligonucleotides (15 pmol) were end-labeled with [γ-^32P] ATP (Perkin Elmer) and T4 polynucleotide kinase (New England Biolabs). Reactions were incubated at 37° C. for 1 h and then passed through G-25 spin columns (GE Healthcare) according to the manufacturer's instructions to remove unincorporated radioactivity. Labeled samples were gel-purified on 10% polyacrylamide gels. Binding reactions were carried out in 10 μL volumes in the following buffer: 5 mM Tris pH 7.4, 5 mM MgCl2, 1 mM DTT, 3% v/v glycerol, 100 mM NaCl. 5 μg of full length purified H2A.Z (Abcam) and TIP60 (SignalChem) proteins were incubated with 1.1 nM of ^32P-labeled ss RNAs. All reactions were assembled on ice and then incubated at room temperature for 30 min. Samples were loaded onto 6% native polyacrylamide gels (0.5×TBE) at 4° C. for 3 h at 140 V. Various concentrations (1 μM-10 mM) of H2A.Z and K7 acetylated H2A.Z peptides (AnaSpec) were incubated with a fixed amount of probe in 50 mM Tris-HCl pH 7.5, 100 mM NaCl, 0.4 mM EDTA, and 40 U/ml RNasin, 1 mM DTT, 50% glycerol in a final volume of 10 μL. Thereafter, 1 μl glutaraldehyde (0.2% final concentration) was added into the mixture and incubated at room temperature for 15 minutes. Samples were loaded onto 10% native polyacrylamide gels (0.5×TBE) at 4° C. for 3 h at 170 V. All gels were dried upon fixation with Methanol and Acetic Acid and exposed to X-ray film.

H2A.Z = target: T1, H2A.Z (Homo sapiens, UniProt P0C0S5); experiment: RNA electrophoresis mobility shift assay (REMSA) with H2A.Z protein; conditions: in vitro, 32P-labeled oligonucleotide, full length purified H2A.Z
T1 construct: 5 μg of full length purified H2A.Z (Abcam) and TIP60 (SignalChem) proteins were incubated; purchased Abcam
T1 sequence (P0C0S5 whole entry): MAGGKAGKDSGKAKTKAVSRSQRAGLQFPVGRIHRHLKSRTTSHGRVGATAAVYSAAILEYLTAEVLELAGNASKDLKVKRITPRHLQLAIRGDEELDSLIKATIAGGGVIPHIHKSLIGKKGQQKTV
Description: as §1

[1] = target: T2, H2A.Z and K7 acetylated H2A.Z peptides (Homo sapiens, UniProt P0C0S5); experiment: REMSA with N-terminal H2A.Z peptides; conditions: in vitro, synthetic peptides
T2 construct: purchased AnaSpec
T2 sequence (P0C0S5 2-21): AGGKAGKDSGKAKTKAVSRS
Description: as §1

Sequence of TIP60 (Q92993 whole entry): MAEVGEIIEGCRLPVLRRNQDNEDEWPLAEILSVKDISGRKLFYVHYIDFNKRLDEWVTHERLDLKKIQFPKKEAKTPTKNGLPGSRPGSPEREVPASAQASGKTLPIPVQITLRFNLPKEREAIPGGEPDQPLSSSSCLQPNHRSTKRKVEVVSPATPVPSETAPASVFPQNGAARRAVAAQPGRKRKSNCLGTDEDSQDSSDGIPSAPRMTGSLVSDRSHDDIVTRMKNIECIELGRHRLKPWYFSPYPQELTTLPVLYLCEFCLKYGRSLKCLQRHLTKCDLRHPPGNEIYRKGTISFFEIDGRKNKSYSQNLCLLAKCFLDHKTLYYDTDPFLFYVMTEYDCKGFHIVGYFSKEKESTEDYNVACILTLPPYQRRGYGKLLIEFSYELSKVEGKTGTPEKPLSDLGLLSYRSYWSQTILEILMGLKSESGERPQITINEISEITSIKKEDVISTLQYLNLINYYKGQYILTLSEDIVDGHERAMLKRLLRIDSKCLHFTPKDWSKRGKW

## DM2: DNA oligonucleotide duplex of the same primary sequence as UR2 (sense CTTTCCTCCACTCTCCCTGGGA; antisense TCCCAGGGAGAGTGGAGGAAAG; DNA, backbone and methylation of C not given here; further chemistry not fully specified)
TIP60
  complex formation with TIP60: weak complex formation

## DM3: DNA oligonucleotide duplex of the same primary sequence as UR3 (sense GGCGTGGCGGTGGGCGCGCAGT; antisense ACTGCGCGCCCACCGCCACGCC; DNA, backbone and methylation of C not given here; further chemistry not fully specified)
TIP60
  complex formation with TIP60: weak complex formation

## DM9A: double-stranded DNA oligonucleotide of the same primary sequence as RM9A (sense GCCCTTTCCCCAGCCTTAGCGA; antisense TCGCTAAGGCTGGGGAAAGGGC; DNA, backbone and methylation of C not given here; further chemistry not fully specified)
TIP60
  complex formation with TIP60: stronger TIP60 binding to the RNAs than to the DNA

## Mut RM9A: mutated RM9A abolishing the predicted stem-loop structure, SEQ ID NO 86 (UUAUGUUAUUGUUUAUAUACGU; RNA, backbone not given here; further chemistry not fully specified)
TIP60
  complex formation with TIP60: did change the strength and the mobility of the RNA-TIP60 complexes

## RM9A: RNA oligonucleotide of common binding motif 9 in c-MYC SPEARs, 5′-GGCGUGGCGGUGGGCGCGCAGU-3′, SEQ ID NO 85 (GGCGUGGCGGUGGGCGCGCAGU; RNA, backbone not given here; further chemistry not fully specified)
H2A.Z
  RNP complex formation with H2A.Z: able to form RNPs
TIP60
  complex formation with TIP60: able to form RNPs; also recorded: stronger TIP60 binding to the RNAs than to the DNA
[1]
  shift in migration with H2A.Z N-terminal peptides, unmodified and acetylated at lysine 7: A shift in migration was observed

## UR1: unrelated RNA oligonucleotide lacking the common binding motif, SEQ ID NO 87 (GCGCCCUGCAGCCUGGUACGCG; RNA, backbone not given here; further chemistry not fully specified)
H2A.Z
  RNP complex formation with H2A.Z: did not form detectable RNPs complexes
TIP60
  complex formation with TIP60: did not form detectable RNPs complexes

## UR2: unrelated RNA oligonucleotide lacking the common binding motif, SEQ ID NO 88 (CUUUCCUCCACUCUCCCUGGGA; RNA, backbone not given here; further chemistry not fully specified)
H2A.Z
  RNP complex formation with H2A.Z: did not form detectable RNPs complexes
TIP60
  complex formation with TIP60: did not form detectable RNPs complexes

## UR3: unrelated RNA oligonucleotide lacking the common binding motif, SEQ ID NO 89 (GCCCUUUCCCCAGCCUUAGCGA; RNA, backbone not given here; further chemistry not fully specified)
H2A.Z
  RNP complex formation with H2A.Z: did not form detectable RNPs complexes
TIP60
  complex formation with TIP60: did not form detectable RNPs complexes

Source: patent publication US20240209456A1, “METHODS AND COMPOSITIONS RELATED TO CELL-CYCLE RNA's” (BETH ISRAEL DEACONESS MEDICAL CENTER, priority 2021, published 2024)
